For experiment [1], the system named is L-selectin. As to the kind of experiment: ELISA assay, selectin-IgG chimera binding to 2,3 sLex glycolipid (L-selectin). The note with it: FIG. 4; tested at several concentrations; results expressed as percent of control binding; values only in the figure. On the procedure:
(§1) An ELISA assay (Foxall et al, The Journal of Cell Biology (1992) 117:895) is preferably used which consists of the following three steps:
(§2) 1. 2,3 sLex glycolipid is transferred into microtitre wells as solutions and then evaporated off. Excess, which remained unattached, is washed off with water. The wells are then blocked with a blocking agent, preferably BSA.
(§3) 2. Preparation of "multivalent" receptor of the Selectin-IgG chimera is carried out by combining the respective chimera with biotin labelled goat F(ab')2 anti-human IgG (Fc specific) and streptavidin-alkaline phosphatase diluted appropriately and incubated. This allows the soluble multivalent receptor complex to form.
(§4) 3. Potential inhibitors such as glyco-amino acids or glycopeptides of structural formula I are allowed to react with the soluble receptor. This solution is then placed in the microtitre wells that are prepared in step 1. The plate is incubated to allow the soluble receptor to bind to its natural ligand. In the presence of a strong inhibitor only a few of the receptors should be free to bind to the microtitre plate coated with the natural ligand.
(§5) The positive control is the signal produced by the soluble receptor when it is allowed to react with the natural ligand in the microtitre wells in the absence of any inhibitor. This is considered 100% binding. The signal produced by the receptor that is previously treated with an inhibitor (recorded as O.D.), is divided by the signal produced by the positive control and multiplied by 100 to calculate the % receptor bound to the well in the presence of the inhibitor. The reciprocal of this is the % inhibition.
(§6) The glyco-amino acids or glycopeptides of structural formula I can be tested for their ability to bind to a selectin receptor and/or block the binding site of the receptor and thereby prevent a natural ligand from binding to the selectin receptor (Foxall et al, The Journal of Cell Biology (1992) 117:895). A generalized procedure for testing the ligands is given below.
(§7) An ELISA assay is preferably used which consisted of the following three steps:
1. 2,3 sLex glycolipid (25 picomol/well) was transferred into microtitre wells as solutions and evaporated off. Excess, which remained unattached, was washed off with water. The wells were blocked with 5% BSA at room temperature for an hour and washed with PBS containing 1 mM calcium.
2. Preparation of "multivalent" receptor of the Selectin-IgG chimera was carried out by combining the respective chimera (1 μg/mL) with biotin labelled goat F(ab')2 anti-human IgG (Fc specific) and streptavidin-alkaline phosphatase diluted 1:1000 in 1% BSA-PBS (1 mM calcium) and incubating at 37° C. for 15 min. This allowed the soluble multivalent receptor complex to form.
3. Potential inhibitors such as glyco-amino acids or glycopeptides of structural formula I were allowed to react with the soluble receptor at 37° C. for 45 min. This test assumes that optimal binding, between the soluble phase receptor complex and the inhibitor (non-natural ligand), would occur within this time frame. This solution was placed in the microtitre wells that were prepared in step 1. The plate was incubated at 37° C. for 45 minutes to allow the soluble receptor to bind to its natural ligand. In the presence of a strong inhibitor only a few receptors would be free to bind to the microtitre plate coated with the natural ligand.
The positive control was the signal produced by the soluble receptor when it was allowed to react with the natural ligand in the microtitre wells in the absence of any inhibitor. This was considered 100% binding. The signal produced by the receptor that was previously treated with an inhibitor (recorded as O.D.), was divided by the signal produced by the positive control and multiplied by 100 to calculate the % receptor bound to the well in the presence of the inhibitor. The reciprocal of this is the % inhibition.
A general note: ELISA stands for enzyme-linked immunosorbent assay.

In experiment [2] the test system is P-selectin. As to the kind of experiment: P-Selectin/HL-60 assay. The experiment is classed as cell-based. The note with it: FIG. 6; HL-60 cells; tested at several concentrations; values only in the figure. The text has this:
The glyco-amino acids or glycopeptides of structural formula I can be tested for their ability to inhibit P-selectin binding to its native ligand. A generalized procedure for testing the ligands is given below. A P-selectin/HL-60 assay is preferably used which consists of the following steps:
1. HL-60 cells are harvested and pelleted by centrifugation. The cells are washed, counted and the volume adjusted appropriately.
2. PVC microtiter plate is blocked with a blocking agent, and washed with TBS-BSA.
3. P-selectin is diluted appropriately in BSA-TBS Ca containing goat F(ab')2 anti-human IgG (Fc spec) and streptavidin-alkaline phosphatase. Positive controls have DMF added to equal the highest concentration of DMF in the sample compounds.
4. Ligands are incubated at room temperature with brisk rotation. […]
Para-nitrophenylphosphonate is added to the plate. […] Aliqouts from each well is transferred to a polystyrene microtiter plate and O.D. read at 405 nm. […] The signal produced by the receptor that is previously treated with an inhibitor (recorded as O.D.), is divided by the signal produced by the positive control and multiplied by 100 to calculate the % receptor bound to the well in the presence of the inhibitor. […]
1. […] The cells were washed three times with TBS without Ca, counted and the volume adjusted to 1.9×10^6 /ml in 1% BSA-TBS Ca just prior to use. […]

Experiment [3] has as its system L-selectin. Kind of experiment: Stamper-Woodruff assay (lymphocyte adhesion to HEV of lymph node frozen sections). It is filed as cell-based, Swiss Webster mice; Sprague-Dawley rats. The conditions noted are these: FIG. 7; lymphocyte binding to HEV, percent of relative binding; values only in the figure.
Excerpt: (§8) Lymphocytes are known to circulate from blood to lymphoid tissues via high endothelial venules (HEV) on lymph nodes. L-selectin is expressed on the surface of lymphocytes and is believed to mediate lymphocyte adhesion by binding to the natural ligand on the HEV. The glyco-amino acids or glycopeptides of structural formula I can be tested for their ability to bind to a selectin receptor and/or block the binding site of the receptor and thereby prevent a natural ligand from binding to the selectin receptor. See, for example, Stoolman et al, The Journal of Cell Biology (1983) 96:722. The Stamper-Woodruff assay is well known in the art, and generally consists of the following three steps:
1. Preparation of the lymphocytes:
(a) The lymphocytes are obtained from the mesenteric nodes of female Swiss Webster mice, by gently teasing tissues with phosphate buffered saline (PBS). The cells are obtained by gently squeezing the cells from the tissues. The cells are dispersed and the cell clumps are removed. The single cell suspension is suspended, washed, and kept on ice until use (less than two hours). Cells are counted and prepared at an appropriate concentration.
(b) The superficial and deep cervical lymph nodes of female Sprague-Dawley rats are dissected and prepared in the same way as the mice.
2. Preparation of frozen sections:
Superficial or deep cervical lymph nodes are dissected from the animals, snap frozen, and immediately placed in a cryostat for sectioning. 10-μm sections are prepared and transferred onto glass slides, and air dried.
3. Potential inhibitors are added to lymphocyte suspensions 10-30 minutes before the start of the binding assay, and unless otherwise stated, are present throughout the subsequent binding incubation.
The frozen sections are used in the order in which they are cut. Aliquots of untreated lymphocytes (positive control), suspensions containing fucoidin (negative control) and suspensions containing potential inhibitors are layered on the sections in an arbitrary sequence such that the control and each test substance are represented once in a series.
The binding of the lymphocytes to the HEV is easily distinguishable from binding elsewhere by virtue of the characteristic picture of tightly packed, darkly stained lymphocytes overlaying the histologically distinctive HEV. The number of adherent lymphocytes on each HEV are counted and the average number of adherent cells per HEV (cells bound per HEV) is calculated. The results are expressed as a percent of relative binding, wherein the positive control is considered to be 100% binding.
as §8, with “were” for “can be”
(a) The lymphocytes were obtained from the mesenteric nodes of female Swiss Webster mice (23-27 g), by gently teasing tissues by phosphate buffered saline (PBS). […] Cells were counted and prepared at 3-4×10^7 cells/ml. […]

Experiment [4] has as its system P-selectin. Kind of experiment: ELISA assay, selectin-IgG chimera binding to 2,3 sLex glycolipid (P-selectin). The conditions noted are these: FIG. 5; tested at several concentrations; results expressed as percent of control binding; values only in the figure. On the procedure:
as §1, §2, §3, §4, §5, §6, §7
1. 2,3 sLex glycolipid (25 picomol/well) was transferred into microtitre wells as solutions and evaporated off. Excess, which remained unattached, was washed off with water. […]
The positive control was the signal produced by the soluble receptor when it was allowed to react with the natural ligand in the microtitre wells in the absence of any inhibitor. […] The signal produced by the receptor that was previously treated with an inhibitor (recorded as O.D.), was divided by the signal produced by the positive control and multiplied by 100 to calculate the % receptor bound to the well in the presence of the inhibitor. […]

As for `C[C@H](NC(=O)C[C@@H]1O[C@@H](C)[C@@H](O)[C@@H](O)[C@@H]1O)C(=O)N1CCC[C@H]1C(=O)N[C@@H](Cc1ccccc1)C(=O)O` [#2, N-[(1-deoxy-α-L-fucopyranosyl)acetyl]-L-alanine-L-proline-L-phenylalanine], the “inhibition of the binding of sLe^x to L-selectin” value (from here on “inhibition … to L-selectin”) with L-selectin [1] is recorded as “inhibit the binding of sLe^x to L-selectin”. Also, in the experiment with P-selectin [2], the “inhibition of the binding of sLe^x to P-selectin in the HL-60 assay” value is “inhibit the binding of sLe^x to P-selectin”. Besides, in the experiment with L-selectin [3], the “inhibitory effects in the Stamper-Woodruff assay (cell adhesion)” value (from here on “inhibitory effects … (cell adhesion)”) is “inhibitory effects”.
In the case of `C[C@@H]1O[C@@H](CC(=O)N[C@@H](CCCCNC(=O)OC(C)(C)C)C(=O)O)[C@@H](O)[C@H](O)[C@@H]1O` [#3, N-ω-t-butoxylcarbonyl-N-α-[(1-deoxy-α-L-fucopyranosyl)acetyl]-L-lysine], in the experiment with L-selectin [1], the “inhibition … to L-selectin” value was “inhibit the binding of sLe^x to L-selectin”. In addition, in the experiment on P-selectin [4], the “inhibition of the binding of sLe^x to P-selectin” value is recorded as “inhibit the binding of sLe^x to P-selectin”. Also, the “inhibitory effects … (cell adhesion)” value in the experiment with L-selectin [3] is reported as “inhibitory effects”.
With `C[C@@H]1O[C@@H](CC(=O)N2CCC[C@H]2C(=O)N[C@@H](Cc2ccccc2)C(=O)O)[C@@H](O)[C@H](O)[C@@H]1O` [#1, N-[(1-deoxy-α-L-fucopyranosyl)acetyl]-L-proline-L-phenylalanine], the “inhibition … to L-selectin” value with L-selectin [1] was “inhibit the binding of sLe^x to L-selectin”. In addition, the “inhibition of the binding of sLe^x to P-selectin” value in the experiment on P-selectin [4] is “inhibit the binding of sLe^x to P-selectin”. In the experiment with P-selectin [2], the “inhibition of the binding of sLe^x to P-selectin in the HL-60 assay” value is “inhibit the binding of sLe^x to P-selectin”. Further, the “inhibitory effects … (cell adhesion)” value with L-selectin [3] is given as “inhibitory effects”.
Turning to `C[C@@H]1O[C@@H](CC(=O)N2CCC[C@H]2C(=O)N[C@H](C(=O)O)c2ccccc2)[C@@H](O)[C@H](O)[C@@H]1O` [#5, N-[(1-deoxy-α-L-fucopyranosyl)acetyl]-L-proline-L-phenylglycine], the “inhibition … to L-selectin” value with L-selectin [1] is “inhibit the binding of sLe^x to L-selectin”. The “inhibition of the binding of sLe^x to P-selectin” value in the experiment on P-selectin [4] is listed as “inhibit the binding of sLe^x to P-selectin”. In addition, the “inhibitory effects … (cell adhesion)” value in the experiment on L-selectin [3] was “inhibitory effects”.
As to `CC1OC(CCCC(=O)NC(Cc2ccccc2)C(=O)O)C(O)C(O)C1O` [#6, N-[4-(1-deoxy-α-L-fucopyranosyl)n-butanoyl]-L-phenylalanine], in the experiment with L-selectin [1], the “inhibition … to L-selectin” value is “inhibit the binding of sLe^x to L-selectin”.
Consider `C[C@@H]1O[C@@H](CCCC(=O)N2CCC[C@H]2C(=O)N[C@@H](Cc2ccccc2)C(=O)O)[C@@H](O)[C@H](O)[C@@H]1O` [#4, N-[4-(1-deoxy-α-L-fucopyranosyl)n-butanoyl]-L-proline-L-phenylalanine], for which, in the experiment on L-selectin [1], the “inhibition … to L-selectin” value is “inhibit the binding of sLe^x to L-selectin”. In addition, the “inhibition of the binding of sLe^x to P-selectin” value in the experiment on P-selectin [4] was “inhibit the binding of sLe^x to P-selectin”. In the experiment with L-selectin [3], the “inhibitory effects … (cell adhesion)” value is “inhibitory effects”.

Source of the values: US5654282A, “Selectin binding glycopeptides” (Glycomed Incorporated, priority 1995, dated 1997).
